Read-outs that look alike come from different tables or passages of the source. Square brackets hold non-standard residues; d marks the D form. Ends that are not written are not given here. Peptide text beside a SMILES is read from it. * marks the point of attachment. X1 = N=C(N)NCCC[C@@H](NC(=NC1CCCCC1)NC1CCCCC1)C(=O)*; Oic = O=C(O)[C@@H]1C[C@@H]2CCCC[C@@H]2N1; dIgl = N[C@@H](C(=O)O)C1Cc2ccccc2C1; Igl = N[C@H](C(=O)O)C1Cc2ccccc2C1; Hyp = O=C(O)[C@@H]1C[C@@H](O)CN1; 2Thi = N[C@@H](Cc1cccs1)C(=O)O Some results are limits rather than exact numbers.

Experimental findings from patent US5648336A (University of Colorado, priority 1994, dated 1997) are described below.

One experiment concerns isolated rat uterus. An excerpt: (§1) A change of one unit of pA2 value represents an order of magnitude change in potency.
(§2) On isolated smooth muscles, agonist potency is given as percent of BK potency; antagonist potency is given as pA2, and is underlined. In blood pressure assays, the number is the dose of peptide in micrograms that causes 50% reduction in the effect of BK intraarterially administered as a bolus mixture in a 500 g male rat; Ag indicates unquantitated agonist activity; Ant indicates unquantitated antagonist activity.

The test system of a further experiment is guinea pig ileum.
Excerpt: as §1, §2

A further experiment addresses T1, B1 receptors (Oryctolagus cuniculus, UniProt P48748).
T1 construct: The thorax was opened and the thoracic aorta carefully removed; from tissue; host or cells: rabbit thoracic aorta spiral strips
T1 sequence (P48748 1-352): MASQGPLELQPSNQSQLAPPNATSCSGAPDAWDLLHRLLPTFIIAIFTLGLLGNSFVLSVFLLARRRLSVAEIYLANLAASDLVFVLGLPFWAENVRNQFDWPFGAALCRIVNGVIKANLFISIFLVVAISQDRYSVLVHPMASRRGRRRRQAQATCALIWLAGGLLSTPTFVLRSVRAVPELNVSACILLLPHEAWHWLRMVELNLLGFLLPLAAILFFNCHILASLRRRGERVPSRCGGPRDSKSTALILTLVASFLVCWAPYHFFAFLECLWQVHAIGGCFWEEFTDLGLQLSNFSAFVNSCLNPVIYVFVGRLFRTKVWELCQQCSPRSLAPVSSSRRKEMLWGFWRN
Description: B1 receptor bioassay, rabbit aorta strips contracted with des-Arg9-BK. The experiment is classed as cell-based. The conditions noted are these: 50% reduction of sustained contraction to 10^-7 M des-Arg9-BK; read-out: Rabbit Aorta p IC50 B1 receptors (converted). Here is the method: Male New Zealand white rabbits, weight range 2-3 kg, were killed by an overdose of pentobarbital i.v. The thorax was opened and the thoracic aorta carefully removed. […] The tissues were placed under 1 gm isometric tension and allowed to equilibrate for 1H. At time 1h, a concentration-effect curve was constructed to the selective B1 agonist des-Arg^9 -BK. This was repeated at time 3 hours. […] Once the contraction was sustained, the compound to be assayed was applied to the tissue bath in a cumulative manner. The concentration of the compound which produced a 50% reduction of the sustained contraction was calculated. The negative logarithm of this concentration was calculated and expressed as the […].

[1] abbreviates: guinea pig ileum, vs double ED50 dose of bradykinin.

Regarding `N=C(N)NCCC[C@@H](N)C(=O)N[C@@H](CCCNC(=N)N)C(=O)N1CCC[C@H]1C(=O)N1C[C@H](O)C[C@H]1C(=O)NCC(=O)N[C@@H](Cc1cccs1)C(=O)N[C@@H](CO)C(=O)N[C@@H](C(=O)N[C@@H](C(=O)N[C@@H](CCCNC(=N)N)C(=O)O)C1Cc2ccccc2C1)C1CCCC1` [Compound 9, DArg-Arg-Pro-Hyp-Gly-Thi-Ser-DCpg-DIglb-Arg], in the experiment with isolated rat uterus, the “Uterus Activity, antagonist potency given as pA2” value (from here on “Uterus Activity … as pA2”) came out at 7.4. Also, the “Ileum Activity, antagonist potency given as pA2” value (“Ileum Activity” below) in the experiment on guinea pig ileum is 7.2.

By IC50 is commonly meant the concentration needed to halve the response being measured. As to `N=C(N)NCCC[C@@H](N)C(=O)N[C@@H](CCCNC(=N)N)C(=O)N1CCC[C@H]1C(=O)N1C[C@H](O)C[C@H]1C(=O)NCC(=O)N[C@H](C(=O)N[C@@H](CO)C(=O)N[C@@H](C(=O)N[C@@H](C(=O)N[C@@H](CCCNC(=N)N)C(=O)O)C1Cc2ccccc2C1)C1CCCC1)C1CCCC1` [Compound 11, DArg-Arg-Pro-Hyp-Gly-Cpg-Ser-DCpg-DIglb-Arg], the IC50 at B1 receptors is 398 nM. As to `N=C(N)NCCC[C@@H](N)C(=O)N[C@@H](CCCNC(=N)N)C(=O)N1CCC[C@H]1C(=O)N1C[C@H](O)C[C@H]1C(=O)NCC(=O)N[C@H](C(=O)N[C@@H](CO)C(=O)N1Cc2ccccc2C[C@@H]1C(=O)N[C@H](C(=O)N[C@@H](CCCNC(=N)N)C(=O)O)C1Cc2ccccc2C1)C1CCCC1` [Compound 12, DArg-Arg-Pro-Hyp-Gly-Cpg-Ser-DTic-Iglb-Arg], the “Uterus Activity, agonist potency given as percent of BK potency” value (from here on “Uterus Activity … as percent of BK potency”) in the experiment with isolated rat uterus came out at 10.5%. Besides, in the experiment on guinea pig ileum, the “Ileum Activity” value is recorded as 5.1. The corresponding values for `N=C(N)NCCC[C@@H](N)C(=O)N[C@@H](CCCNC(=N)N)C(=O)N1CCC[C@H]1C(=O)N1C[C@H](O)C[C@H]1C(=O)NCC(=O)N[C@H](C(=O)N[C@@H](CO)C(=O)N1Cc2ccccc2C[C@@H]1C(=O)N[C@@H](C(=O)N[C@@H](CCCNC(=N)N)C(=O)O)C1Cc2ccccc2C1)C1CCCC1` [Compound 13, DArg-Arg-Pro-Hyp-Gly-Cpg-Ser-DTic-DIglb-Arg] are 8.6% and 6.0. As for `N=C(N)NCCC[C@@H](N)C(=O)N[C@@H](CCCNC(=N)N)C(=O)N1CCC[C@H]1C(=O)N1C[C@H](O)C[C@H]1C(=O)NCC(=O)N[C@@H](Cc1ccccc1)C(=O)N[C@@H](CO)C(=O)N[C@H](C(=O)N1[C@H](C(=O)N[C@@H](CCCNC(=N)N)C(=O)O)C[C@@H]2CCCC[C@@H]21)C1Cc2ccccc2C1` [Compound 14, DArg-Arg-Pro-Hyp-Gly-Phe-Ser-Iglb-Oic-Arg] (H-[dR]RP[Hyp]GFS[Igl][Oic]R-OH), the “Uterus Activity … as pA2” value in the experiment on isolated rat uterus is given as 6.5. In the experiment on guinea pig ileum, the “Ileum Activity” value is recorded as 5.1. Take `N=C(N)NCCC[C@@H](N)C(=O)N[C@@H](CCCNC(=N)N)C(=O)N1CCC[C@H]1C(=O)N1C[C@H](O)C[C@H]1C(=O)NCC(=O)N[C@@H](Cc1ccccc1)C(=O)N[C@@H](CO)C(=O)N[C@@H](C(=O)N1[C@H](C(=O)N[C@@H](CCCNC(=N)N)C(=O)O)C[C@@H]2CCCC[C@@H]21)C1Cc2ccccc2C1` [Compound 15, DArg-Arg-Pro-Hyp-Gly-Phe-Ser-DIglb-Oic-Arg] (H-[dR]RP[Hyp]GFS[dIgl][Oic]R-OH): on B1 receptors, the concentration for half-maximal inhibition (IC50) is 162 nM. The “Uterus Activity … as pA2” value in the experiment on isolated rat uterus worked out at 7.9. In addition, the “Ileum Activity” value with guinea pig ileum is on record as 7.6.

`N=C(N)NCCC[C@@H](N)C(=O)N[C@@H](CCCNC(=N)N)C(=O)N1CCC[C@H]1C(=O)N1C[C@H](O)C[C@H]1C(=O)NCC(=O)N[C@H](C(=O)N[C@@H](CO)C(=O)N[C@@H](C(=O)N1[C@H](C(=O)N[C@@H](CCCNC(=N)N)C(=O)O)C[C@@H]2CCCC[C@@H]21)C1Cc2ccccc2C1)C1CCCC1` [Compound 24, DArg-Arg-Pro-Hyp-Gly-Cpg-Ser-DIglb-Oic-Arg]: the 50% inhibitory concentration (IC50) at B1 receptors is 427 nM. For the same molecule, in the experiment with guinea pig ileum, the “Ileum Activity” value is reported as 8.1. As to `Cc1ccc(C[C@H](NC(=O)CNC(=O)[C@@H]2C[C@@H](O)CN2C(=O)[C@@H]2CCCN2C(=O)[C@H](CCCNC(=N)N)NC(=O)[C@H](N)CCCNC(=N)N)C(=O)N[C@@H](CO)C(=O)N[C@@H](C(=O)N2[C@H](C(=O)N[C@@H](CCCNC(=N)N)C(=O)O)C[C@@H]3CCCC[C@@H]32)C2Cc3ccccc3C2)c(C)c1` [Compound 26, DArg-Arg-Pro-Hyp-Gly-DMF-Ser-DIglb-Oic-Arg], in the experiment on isolated rat uterus, the “Uterus Activity … as pA2” value amounted to 7.3. Also, in the experiment with guinea pig ileum, the “Ileum Activity” value was 6.6.

In the case of `N=C(N)NCCC[C@@H](N)C(=O)N[C@@H](CCCNC(=N)N)C(=O)N1CCC[C@H]1C(=O)N1C[C@H](O)C[C@H]1C(=O)NCC(=O)N[C@H](C(=O)N[C@@H](CO)C(=O)N1Cc2ccccc2C[C@@H]1C(=O)N(CC(=O)N[C@@H](CCCNC(=N)N)C(=O)O)C1Cc2ccccc2C1)C1CCCC1` [Compound 29, DArg-Arg-Pro-Hyp-Gly-Cpg-Ser-DTic-Nigb-Arg], in the experiment on isolated rat uterus, the “Uterus Activity … as pA2” value was determined as 8.1. In the experiment on guinea pig ileum, the “Ileum Activity” value came out at 7.6. For the molecule `N=C(N)NCCC[C@@H](N)C(=O)N[C@@H](CCCNC(=N)N)C(=O)N1CCC[C@H]1C(=O)N1C[C@H](O)C[C@H]1C(=O)NCC(=O)N[C@@H](C(=O)N[C@@H](CO)C(=O)N[C@@H](C(=O)N1[C@H](C(=O)N[C@@H](CCCNC(=N)N)C(=O)O)C[C@@H]2CCCC[C@@H]21)C1Cc2ccccc2C1)C1Cc2ccccc2C1` [Compound 30, DArg-Arg-Pro-Hyp-Gly-DIglb-Ser-DIglb-Oic-Arg], the IC50 on B1 receptors is above 10000 nM. As to `N=C(N)NCCC[C@H](NC(=O)[C@@H]1C[C@@H]2CCCC[C@@H]2N1C(=O)[C@@H](NC(=O)[C@H](CO)NC(=O)[C@H](Cc1cccs1)NC(=O)CNC(=O)[C@@H]1C[C@@H](O)CN1C(=O)[C@@H]1CCCN1C(=O)[C@H](CCCNC(=N)N)NC(=O)[C@@H](CCCNC(=N)N)NC(=O)C12CC3CC(CC(C3)C1)C2)C1Cc2ccccc2C1)C(=O)O` [Compound 54, Aca-DArg-Arg-Pro-Hyp-Gly-Thi-Ser-Iglb-Oic-Arg], the “Uterus Activity … as pA2” value in the experiment on isolated rat uterus is given as 5.8. In the case of `N=C(N)NCCC[C@H](NC(=O)[C@@H]1C[C@@H]2CCCC[C@@H]2N1C(=O)[C@H](NC(=O)[C@H](CO)NC(=O)[C@H](Cc1cccs1)NC(=O)CNC(=O)[C@@H]1C[C@@H](O)CN1C(=O)[C@@H]1CCCN1C(=O)[C@H](CCCNC(=N)N)NC(=O)[C@@H](CCCNC(=N)N)NC(=O)C12CC3CC(CC(C3)C1)C2)C1Cc2ccccc2C1)C(=O)O` [Compound 55, Aca-DArg-Arg-Pro-Hyp-Gly-Thi-Ser-DIglb-Oic-Arg], at B1 receptors, the IC50 is 269 nM. Further, the “Uterus Activity … as pA2” value in the experiment with isolated rat uterus was found to be 9.2. In addition, the “Ileum Activity” value in the experiment with guinea pig ileum came to 8.4. For the molecule `N=C(N)NCCC[C@H](NC(=O)[C@@H]1C[C@@H]2CCCC[C@@H]2N1C(=O)[C@H](NC(=O)[C@H](CO)NC(=O)[C@H](Cc1cccs1)NC(=O)CNC(=O)[C@@H]1C[C@@H](O)CN1C(=O)[C@@H]1CCCN1C(=O)[C@H](CCCNC(=N)N)NC(=O)[C@@H](CCCNC(=N)N)NC(=NC1CCCCC1)NC1CCCCC1)C1Cc2ccccc2C1)C(=O)O` [Compound 58, Dcg-DArg-Arg-Pro-Hyp-Gly-Thi-Ser-DIglb-Oic-Arg] (X1-RP[Hyp]G[2Thi]S[dIgl][Oic]R-OH), the “Uterus Activity … as percent of BK potency” value in the experiment with isolated rat uterus is reported as 3.0%. Also, in the experiment on guinea pig ileum, the “Ileum Activity” value is recorded as 5.4. Consider `N=C(N)NCCC[C@H](NC(=O)[C@@H]1C[C@@H]2CCCC[C@@H]2N1C(=O)[C@H](NC(=O)[C@H](CO)NC(=O)[C@H](Cc1cccs1)NC(=O)CNC(=O)[C@@H]1C[C@@H](O)CN1C(=O)[C@@H]1CCCN1C(=O)[C@H](CCCNC(=N)N)NC(=O)[C@@H](CCCNC(=N)N)NC(=O)C1=CN2CCC1CC2)C1Cc2ccccc2C1)C(=O)O` [Compound 59, Dhq-DArg-Arg-Pro-Hyp-Gly-Thi-Ser-DIglb-Oic-Arg], for which, in the experiment with isolated rat uterus, the “Uterus Activity … as pA2” value came to 8.1. In addition, in the experiment on guinea pig ileum, the “Ileum Activity” value is 7.2. On to “DArg-Arg-Pro-Hyp-Gly-Thi-Ser-DIgl-Iglb-Arg [Compound 19]”, for which the “Uterus Activity … as percent of BK potency” value in the experiment on isolated rat uterus (isolated rat uterus) was found to be 9.1%. Besides, the “Ileum Activity” value with guinea pig ileum (setting [1]) turned out to be 6.7. Turning to “DArg-Arg-Pro-Hyp-Gly-Thi-Ser-Higb-Oic-Arg [Compound 125]”, the “Uterus Activity … as percent of BK potency” value in the experiment on isolated rat uterus (isolated rat uterus) is reported as 9.4%. The “Ileum Activity” value in the experiment on guinea pig ileum (setting [1]) is on record as 6.6. As for “RPPGFSPFR [bradykinin, Arg^1 -Pro^2 -Pro^3 -Gly^4 -Phe^5 -Ser^6 -Pro^7 -Phe^8 -Arg^9, reference compound]”, the “pD2 value (negative logarithm of the dose causing half-maximal contraction)” value in the experiment on isolated rat uterus (rat uterus) was 7.9; in the experiment with guinea pig ileum (guinea pig ileum), 7.4.
